ChEMBL document CHEMBL3588828, “A Selective, Cell-Permeable Nonphosphorylated Bicyclic Peptidyl Inhibitor against Peptidyl-Prolyl Isomerase Pin1” (J Med Chem, 2015)

Each molecule was assayed against Peptidyl-prolyl cis-trans isomerase NIMA-interacting 1 (Homo sapiens, UniProt Q13526, S16A/Y23A) (assay: Binding affinity to N-terminal MBP fused and Texas-red-labeled full-length human Pin1 S16A/Y23A mutant expressed in Escherichia coli assessed as increase in fluorescence anisotropy by spectrofluorimetry). Details: read-out: Kd.
Sequence of Peptidyl-prolyl cis-trans isomerase NIMA-interacting 1 (Q13526 whole entry S16A/Y23A, the tested form may be a part): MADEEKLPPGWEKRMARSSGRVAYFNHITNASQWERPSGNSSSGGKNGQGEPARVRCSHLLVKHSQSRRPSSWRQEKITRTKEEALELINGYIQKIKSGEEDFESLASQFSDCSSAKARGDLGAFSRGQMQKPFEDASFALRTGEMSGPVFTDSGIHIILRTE

Structure (SMILES) | Kd
C[C@H]1NC(=O)[C@H](CC(=O)O)NC(=O)[C@H](CCCNC(=N)N)NC(=O)[C@H](Cc2ccc3ccccc3c2)NC(=O)[C@H]2CCCCN2C(=O)[C@@H](CC(=O)O)NC(=O)CN(C)C(=O)[C@@H]2CCCN2C(=O)c2cc3cc(c2)C(=O)NC[C@H](NC1=O)C(=O)N[C@@H](Cc1ccccc1)C(=O)N[C@@H](Cc1ccc2ccccc2c1)C(=O)N[C@@H](CCCNC(=N)N)C(=O)N[C@@H](CCCNC(=N)N)C(=O)N[C@@H](CCCNC(=N)N)C(=O)N[C@@H](CCCNC(=N)N)C(=O)N[C@H](C(=O)N[C@@H](CCCCN)C(=O)O)CNC3=O | 3.19 µM
C[C@@H]1NC(=O)[C@H](CCCNC(=N)N)NC(=O)[C@H](Cc2ccc3ccccc3c2)NC(=O)[C@H]2CCCCN2C(=O)[C@@H](CC(=O)O)NC(=O)CN(C)C(=O)[C@@H]2CCCN2C(=O)c2cc3cc(c2)C(=O)NC[C@H](NC(=O)[C@@H](C)NC1=O)C(=O)N[C@@H](Cc1ccccc1)C(=O)N[C@@H](Cc1ccc2ccccc2c1)C(=O)N[C@@H](CCCNC(=N)N)C(=O)N[C@@H](CCCNC(=N)N)C(=O)N[C@@H](CCCNC(=N)N)C(=O)N[C@@H](CCCNC(=N)N)C(=O)N[C@H](C(=O)N[C@@H](CCCCN)C(=O)O)CNC3=O (stereo in doubt; 10) | 3.42 µM
C[C@@H]1NC(=O)[C@H](CCCNC(=N)N)NC(=O)[C@H](Cc2ccc3ccccc3c2)NC(=O)[C@H]2CCCCN2C(=O)[C@@H]([C@H](C)O)NC(=O)[C@H](Cc2ccc(F)cc2)NC(=O)[C@@H](Cc2ccccc2)NC(=O)c2cc3cc(c2)C(=O)NC[C@H](NC(=O)[C@@H](Cc2ccccc2)NC1=O)C(=O)N[C@@H](CCCNC(=N)N)C(=O)N[C@@H](CCCNC(=N)N)C(=O)N[C@@H](Cc1ccc2ccccc2c1)C(=O)N[C@@H](Cc1ccccc1)C(=O)N[C@@H](CCCNC(=N)N)C(=O)N[C@@H](CCCNC(=N)N)C(=O)N[C@H](C(=O)N[C@@H](CCCCN)C(=O)O)CNC3=O | 1.38 µM
C[C@@H]1NC(=O)[C@H](CCCNC(=N)N)NC(=O)[C@H](Cc2ccc3ccccc3c2)NC(=O)[C@H]2CCCCN2C(=O)[C@@H]([C@H](C)O)NC(=O)[C@H](Cc2ccc(F)cc2)NC(=O)[C@@H](Cc2ccccc2)NC(=O)c2cc3cc(c2)C(=O)NC[C@@H](C(=O)N[C@@H](CCCCN)C(=O)O)NC(=O)[C@H](CCCNC(=N)N)NC(=O)[C@H](CCCNC(=N)N)NC(=O)[C@H](CCCNC(=N)N)NC(=O)[C@H](CCCNC(=N)N)NC(=O)[C@H](Cc2ccc4ccccc4c2)NC(=O)[C@H](Cc2ccccc2)NC(=O)[C@H](CNC3=O)NC1=O | 0.9 µM
C[C@@H]1NC(=O)[C@H](CCCNC(=N)N)NC(=O)[C@H](Cc2ccc3ccccc3c2)NC(=O)[C@H]2CCCCN2C(=O)[C@@H](CC(=O)O)NC(=O)CN(C)C(=O)[C@@H]2CCCN2C(=O)c2cc3cc(c2)C(=O)NC[C@@H](C(=O)N[C@@H](CCCCN)C(=O)O)NC(=O)[C@H](CCCNC(=N)N)NC(=O)[C@H](CCCNC(=N)N)NC(=O)[C@H](CCCNC(=N)N)NC(=O)[C@H](CCCNC(=N)N)NC(=O)[C@H](Cc2ccc4ccccc4c2)NC(=O)[C@H](Cc2ccccc2)NC(=O)[C@H](CNC3=O)NC1=O | 2.59 µM
CC(C)[C@@H]1NC(=O)[C@H](CCCNC(=N)N)NC(=O)[C@H](Cc2ccc3ccccc3c2)NC(=O)[C@H]2CCCCN2C(=O)[C@@H](CC(=O)O)NC(=O)CN(C)C(=O)[C@@H]2CCCN2C(=O)c2cc3cc(c2)C(=O)NC[C@H](NC(=O)[C@@H](C)NC1=O)C(=O)N[C@@H](Cc1ccccc1)C(=O)N[C@@H](Cc1ccc2ccccc2c1)C(=O)N[C@@H](CCCNC(=N)N)C(=O)N[C@@H](CCCNC(=N)N)C(=O)N[C@@H](CCCNC(=N)N)C(=O)N[C@@H](CCCNC(=N)N)C(=O)N[C@H](C(=O)N[C@@H](CCCCN)C(=O)O)CNC3=O | 1.75 µM
C[C@@H]1NC(=O)[C@H](CCCNC(=N)N)NC(=O)[C@H](Cc2ccc3ccccc3c2)NC(=O)[C@H]2CCCCN2C(=O)[C@@H]([C@H](C)O)NC(=O)[C@H](Cc2cnc[nH]2)NC(=O)[C@@H](Cc2ccccc2)NC(=O)c2cc3cc(c2)C(=O)NC[C@H](NC(=O)[C@@H](C)NC1=O)C(=O)N[C@@H](Cc1ccccc1)C(=O)N[C@@H](Cc1ccc2ccccc2c1)C(=O)N[C@@H](CCCNC(=N)N)C(=O)N[C@@H](CCCNC(=N)N)C(=O)N[C@@H](CCCNC(=N)N)C(=O)N[C@@H](CCCNC(=N)N)C(=O)N[C@H](C(=O)N[C@@H](CCCCN)C(=O)O)CNC3=O | 1.68 µM
C[C@@H]1NC(=O)[C@H](CCCNC(=N)N)NC(=O)[C@H](Cc2ccc3ccccc3c2)NC(=O)[C@H]2CCCCN2C(=O)[C@@H](CC(=O)O)NC(=O)CN(C)C(=O)[C@@H]2CCCN2C(=O)c2cc3cc(c2)C(=O)NC[C@H](NC(=O)[C@@H](C)NC1=O)C(=O)N[C@@H](Cc1ccccc1)C(=O)N[C@@H](Cc1ccc2ccccc2c1)C(=O)N[C@@H](CCCNC(=N)N)C(=O)N[C@@H](CCCNC(=N)N)C(=O)N[C@@H](CCCNC(=N)N)C(=O)N[C@@H](CCCNC(=N)N)C(=O)N[C@H](C(=O)N[C@@H](CCCCN)C(=O)O)CNC3=O (stereo in doubt; 3) | 0.87 µM
C[C@@H]1NC(=O)[C@H](CCCNC(=N)N)NC(=O)[C@H](Cc2ccc3ccccc3c2)NC(=O)[C@H]2CCCCN2C(=O)[C@@H]([C@H](C)O)NC(=O)[C@H](Cc2ccc(F)cc2)NC(=O)[C@@H](Cc2ccccc2)NC(=O)c2cc3cc(c2)C(=O)NC[C@H](NC(=O)[C@@H](C)NC1=O)C(=O)N[C@@H](Cc1ccccc1)C(=O)N[C@@H](Cc1ccc2ccccc2c1)C(=O)N[C@@H](CCCNC(=N)N)C(=O)N[C@@H](CCCNC(=N)N)C(=O)N[C@@H](CCCNC(=N)N)C(=O)N[C@@H](CCCNC(=N)N)C(=O)N[C@H](C(=O)N[C@@H](CCCCN)C(=O)O)CNC3=O | 0.67 µM
C[C@@H]1NC(=O)[C@H](CCCNC(=N)N)NC(=O)[C@H](Cc2ccc3ccccc3c2)NC(=O)[C@H]2CCCCN2C(=O)[C@@H]([C@H](C)O)NC(=O)[C@H](Cc2ccc(F)cc2)NC(=O)[C@@H](Cc2ccccc2)NC(=O)c2cc3cc(c2)C(=O)NC[C@H](NC(=O)[C@@H](Cc2ccccc2)NC1=O)C(=O)N[C@@H](CCCNC(=N)N)C(=O)N[C@@H](CCCNC(=N)N)C(=O)N[C@@H](CCCNC(=N)N)C(=O)N[C@@H](CCCNC(=N)N)C(=O)N[C@@H](Cc1ccc2ccccc2c1)C(=O)N[C@@H](Cc1ccccc1)C(=O)N[C@H](C(=O)N[C@@H](CCCCN)C(=O)O)CNC3=O | 0.98 µM
C[C@@H]1NC(=O)CCNC(=O)[C@H](CCCNC(=N)N)NC(=O)[C@H](Cc2ccc3ccccc3c2)NC(=O)[C@H]2CCCCN2C(=O)[C@@H](CC(=O)O)NC(=O)CN(C)C(=O)[C@@H]2CCCN2C(=O)c2cc3cc(c2)C(=O)NC[C@@H](C(=O)N[C@@H](CCCCN)C(=O)O)NC(=O)[C@H](CCCNC(=N)N)NC(=O)[C@H](CCCNC(=N)N)NC(=O)[C@H](CCCNC(=N)N)NC(=O)[C@H](CCCNC(=N)N)NC(=O)[C@H](Cc2ccc4ccccc4c2)NC(=O)[C@H](Cc2ccccc2)NC(=O)[C@H](CNC3=O)NC1=O | 1.75 µM
C[C@@H]1NC(=O)[C@H](CCCNC(=N)N)NC(=O)[C@H](Cc2ccc3ccccc3c2)NC(=O)[C@H]2CCCCN2C(=O)[C@@H]([C@H](C)O)NC(=O)[C@H](Cc2ccc(F)cc2)NC(=O)[C@@H](Cc2ccccc2)NC(=O)c2cc3cc(c2)C(=O)NC[C@H](NC(=O)[C@@H](Cc2ccccc2)NC1=O)C(=O)N[C@@H](CCCNC(=N)N)C(=O)N[C@@H](Cc1ccc2ccccc2c1)C(=O)N[C@@H](CCCNC(=N)N)C(=O)N[C@@H](Cc1ccccc1)C(=O)N[C@@H](CCCNC(=N)N)C(=O)N[C@@H](CCCNC(=N)N)C(=O)N[C@H](C(=O)N[C@@H](CCCCN)C(=O)O)CNC3=O | 0.45 µM
C[C@H]1NC(=O)[C@H](CCCNC(=N)N)NC(=O)[C@H](CCCNC(=N)N)NC(=O)[C@H](Cc2ccc3ccccc3c2)NC(=O)[C@H]2CCCCN2C(=O)[C@@H](CC(=O)O)NC(=O)CN(C)C(=O)[C@@H]2CCCN2C(=O)c2cc3cc(c2)C(=O)NC[C@H](NC1=O)C(=O)N[C@@H](Cc1ccccc1)C(=O)N[C@@H](Cc1ccc2ccccc2c1)C(=O)N[C@@H](CCCNC(=N)N)C(=O)N[C@@H](CCCNC(=N)N)C(=O)N[C@@H](CCCNC(=N)N)C(=O)N[C@@H](CCCNC(=N)N)C(=O)N[C@H](C(=O)N[C@@H](CCCCN)C(=O)O)CNC3=O | 0.72 µM
C[C@H]1NC(=O)[C@H](Cc2ccc(O)cc2)NC(=O)[C@H](CCCNC(=N)N)NC(=O)[C@H](Cc2ccc3ccccc3c2)NC(=O)[C@H]2CCCCN2C(=O)[C@@H](CC(=O)O)NC(=O)CN(C)C(=O)[C@@H]2CCCN2C(=O)c2cc3cc(c2)C(=O)NC[C@H](NC1=O)C(=O)N[C@@H](Cc1ccccc1)C(=O)N[C@@H](Cc1ccc2ccccc2c1)C(=O)N[C@@H](CCCNC(=N)N)C(=O)N[C@@H](CCCNC(=N)N)C(=O)N[C@@H](CCCNC(=N)N)C(=O)N[C@@H](CCCNC(=N)N)C(=O)N[C@H](C(=O)N[C@@H](CCCCN)C(=O)O)CNC3=O | 2.17 µM
CN1CC(=O)N[C@H](CC(=O)O)C(=O)N2CCCC[C@@H]2C(=O)N[C@@H](Cc2ccc3ccccc3c2)C(=O)N[C@@H](CCCNC(=N)N)C(=O)NCCC(=O)NCCC(=O)N[C@H]2CNC(=O)c3cc(cc(c3)C(=O)N3CCC[C@H]3C1=O)C(=O)NC[C@@H](C(=O)N[C@@H](CCCCN)C(=O)O)NC(=O)[C@H](CCCNC(=N)N)NC(=O)[C@H](CCCNC(=N)N)NC(=O)[C@H](CCCNC(=N)N)NC(=O)[C@H](CCCNC(=N)N)NC(=O)[C@H](Cc1ccc3ccccc3c1)NC(=O)[C@H](Cc1ccccc1)NC2=O | 4.83 µM
C[C@@H]1NC(=O)[C@H](CCCNC(=N)N)NC(=O)[C@H](Cc2ccc3ccccc3c2)NC(=O)[C@H]2CCCCN2C(=O)[C@@H](CC(=O)O)NC(=O)CN(C)C(=O)[C@@H]2CCCN2C(=O)c2cc3cc(c2)C(=O)NC[C@@H](C(=O)N[C@@H](CCCCN)C(=O)O)NC(=O)[C@H](CCCNC(=N)N)NC(=O)[C@H](CCCNC(=N)N)NC(=O)[C@H](CCCNC(=N)N)NC(=O)[C@H](CCCNC(=N)N)NC(=O)[C@H](Cc2ccc4ccccc4c2)NC(=O)[C@H](Cc2ccccc2)NC(=O)[C@H](CNC3=O)NC(=O)CCNC1=O | 2.08 µM
